ChEMBL document CHEMBL4706678, “Trivalent sulfonium compounds (TSCs): Tetrahydrothiophene-based amphiphiles exhibit similar antimicrobial activity to analogous ammonium-based amphiphiles” (Bioorg Med Chem Lett, 2021)

System: Staphylococcus aureus
Assay: Antimicrobial activity against methicillin-susceptible Staphylococcus aureus SH1000 assessed as inhibition of microbial growth
Assay type: functional
Settings: not given

**Q.** How did the MIC turn out when `CCCCCCCCCCCCC[N+]1(C)CCCC1.[Br-]` was run?
**A.** 8 µM

**Q.** How did the MIC turn out when `CCCCCCCCCC[N+]1(C)CCCC1.[Br-]` was run?
**A.** > 250 µM

**Q.** For `C[N+]1(CCCCCCCCCC[N+]2(C)CCCC2)CCCC1.[Br-].[Br-]`, which MIC is on record?
**A.** > 250 µM

**Q.** How did the MIC turn out when `C(CCCCC[S+]1CCCC1)CCCC[S+]1CCCC1.[I-].[I-]` was run?
**A.** 250 µM

**Q.** Which MIC does the source give for `CCCCCCCCCCCCC[S+]1CCCC1.[I-]` here?
**A.** 8 µM

**Q.** How did the MIC turn out when `C(CCCC[S+]1CCCC1)CCC[S+]1CCCC1.[I-].[I-]` was run?
**A.** > 250 µM

**Q.** How did the MIC turn out when `C[N+]1(CCCCCCCC[N+]2(C)CCCC2)CCCC1.[Br-].[Br-]` was run?
**A.** > 250 µM

**Q.** With `CCCCCCCCCCCCCC[S+]1CCCC1.[I-]` as the compound, how does the MIC read?
**A.** 4 µM

**Q.** How did the MIC turn out when `CCCCCCCCCCCCCCCC[S+]1CCCC1.[I-]` was run?
**A.** 2 µM

**Q.** How did the MIC turn out when `CCCCCCCCCCCCCCCCCC[N+]1(C)CCCC1.[Br-]` was run?
**A.** 2 µM

**Q.** For `CCCCCCCCCCCC[N+]1(C)CCCC1.[Br-]`, which MIC is on record?
**A.** 32 µM

System: Staphylococcus aureus
Assay: microbe, parasite or virus in culture
Assay type: functional
Settings: ATCC 33591
Description: Antimicrobial activity against hospital acquired methicillin-resistant Staphylococcus aureus ATCC 33591 assessed as inhibition of microbial growth

**Q.** `CCCCCCCCCCCCC[N+]1(C)CCCC1.[Br-]` was tested. Which MIC did it give?
**A.** 63 µM

**Q.** `CCCCCCCCCC[N+]1(C)CCCC1.[Br-]` was tested. Which MIC did it give?
**A.** > 250 µM

**Q.** Which MIC does the source give for `C[N+]1(CCCCCCCCCC[N+]2(C)CCCC2)CCCC1.[Br-].[Br-]` here?
**A.** > 250 µM

**Q.** `C(CCCCC[S+]1CCCC1)CCCC[S+]1CCCC1.[I-].[I-]` was tested. Which MIC did it give?
**A.** > 250 µM

**Q.** For `CCCCCCCCCCCCC[S+]1CCCC1.[I-]`, which MIC is on record?
**A.** 125 µM

**Q.** How did the MIC turn out when `C(CCCC[S+]1CCCC1)CCC[S+]1CCCC1.[I-].[I-]` was run?
**A.** > 250 µM

**Q.** For `C[N+]1(CCCCCCCC[N+]2(C)CCCC2)CCCC1.[Br-].[Br-]`, which MIC is on record?
**A.** > 250 µM

**Q.** How did the MIC turn out when `CCCCCCCCCCCCCC[S+]1CCCC1.[I-]` was run?
**A.** 32 µM

**Q.** For `CCCCCCCCCCCCCCCC[S+]1CCCC1.[I-]`, which MIC is on record?
**A.** 8 µM

**Q.** Which MIC does the source give for `CCCCCCCCCCCCCCCCCC[N+]1(C)CCCC1.[Br-]` here?
**A.** 8 µM

**Q.** `CCCCCCCCCCCC[N+]1(C)CCCC1.[Br-]` was tested. Which MIC did it give?
**A.** 125 µM

System: Staphylococcus aureus
Assay: Antimicrobial activity against community acquired methicillin-resistant Staphylococcus aureus USA300 assessed as inhibition of microbial growth
Assay type: functional
Settings: not given

**Q.** For `CCCCCCCCCCCCC[N+]1(C)CCCC1.[Br-]`, which MIC is on record?
**A.** 16 µM

**Q.** Which MIC does the source give for `CCCCCCCCCC[N+]1(C)CCCC1.[Br-]` here?
**A.** > 250 µM

**Q.** Which MIC does the source give for `C[N+]1(CCCCCCCCCC[N+]2(C)CCCC2)CCCC1.[Br-].[Br-]` here?
**A.** > 250 µM

**Q.** For `C(CCCCC[S+]1CCCC1)CCCC[S+]1CCCC1.[I-].[I-]`, which MIC is on record?
**A.** 250 µM

**Q.** For `CCCCCCCCCCCCC[S+]1CCCC1.[I-]`, which MIC is on record?
**A.** 32 µM

**Q.** For `C(CCCC[S+]1CCCC1)CCC[S+]1CCCC1.[I-].[I-]`, which MIC is on record?
**A.** > 250 µM

**Q.** With `C[N+]1(CCCCCCCC[N+]2(C)CCCC2)CCCC1.[Br-].[Br-]` as the compound, how does the MIC read?
**A.** > 250 µM

**Q.** With `CCCCCCCCCCCCCC[S+]1CCCC1.[I-]` as the compound, how does the MIC read?
**A.** 4 µM

**Q.** `CCCCCCCCCCCCCCCC[S+]1CCCC1.[I-]` was tested. Which MIC did it give?
**A.** 4 µM

**Q.** For `CCCCCCCCCCCCCCCCCC[N+]1(C)CCCC1.[Br-]`, which MIC is on record?
**A.** 4 µM

**Q.** For `CCCCCCCCCCCC[N+]1(C)CCCC1.[Br-]`, which MIC is on record?
**A.** 32 µM

System: Enterococcus faecalis
Assay: Antimicrobial activity against Enterococcus faecalis OG1RF assessed as inhibition of microbial growth
Assay type: functional
Settings: not given

**Q.** For `CCCCCCCCCCCCC[N+]1(C)CCCC1.[Br-]`, which MIC is on record?
**A.** > 250 µM

**Q.** `CCCCCCCCCC[N+]1(C)CCCC1.[Br-]` was tested. Which MIC did it give?
**A.** > 250 µM

**Q.** With `C[N+]1(CCCCCCCCCC[N+]2(C)CCCC2)CCCC1.[Br-].[Br-]` as the compound, how does the MIC read?
**A.** > 250 µM

**Q.** `C(CCCCC[S+]1CCCC1)CCCC[S+]1CCCC1.[I-].[I-]` was tested. Which MIC did it give?
**A.** > 250 µM

**Q.** With `CCCCCCCCCCCCC[S+]1CCCC1.[I-]` as the compound, how does the MIC read?
**A.** > 250 µM

**Q.** With `C(CCCC[S+]1CCCC1)CCC[S+]1CCCC1.[I-].[I-]` as the compound, how does the MIC read?
**A.** > 250 µM

**Q.** Which MIC does the source give for `C[N+]1(CCCCCCCC[N+]2(C)CCCC2)CCCC1.[Br-].[Br-]` here?
**A.** > 250 µM

**Q.** With `CCCCCCCCCCCCCC[S+]1CCCC1.[I-]` as the compound, how does the MIC read?
**A.** > 250 µM

**Q.** `CCCCCCCCCCCCCCCC[S+]1CCCC1.[I-]` was tested. Which MIC did it give?
**A.** > 250 µM

**Q.** Which MIC does the source give for `CCCCCCCCCCCCCCCCCC[N+]1(C)CCCC1.[Br-]` here?
**A.** > 250 µM

**Q.** With `CCCCCCCCCCCC[N+]1(C)CCCC1.[Br-]` as the compound, how does the MIC read?
**A.** > 250 µM

System: Pseudomonas aeruginosa
Assay: Antimicrobial activity against Pseudomonas aeruginosa PAO1 assessed as inhibition of microbial growth
Assay type: functional
Settings: not given

**Q.** For `CCCCCCCCCCCCC[N+]1(C)CCCC1.[Br-]`, which MIC is on record?
**A.** > 250 µM

**Q.** For `CCCCCCCCCC[N+]1(C)CCCC1.[Br-]`, which MIC is on record?
**A.** > 250 µM

**Q.** How did the MIC turn out when `C[N+]1(CCCCCCCCCC[N+]2(C)CCCC2)CCCC1.[Br-].[Br-]` was run?
**A.** > 250 µM

**Q.** How did the MIC turn out when `C(CCCCC[S+]1CCCC1)CCCC[S+]1CCCC1.[I-].[I-]` was run?
**A.** > 250 µM

**Q.** Which MIC does the source give for `CCCCCCCCCCCCC[S+]1CCCC1.[I-]` here?
**A.** > 250 µM

**Q.** For `C(CCCC[S+]1CCCC1)CCC[S+]1CCCC1.[I-].[I-]`, which MIC is on record?
**A.** > 250 µM

**Q.** How did the MIC turn out when `C[N+]1(CCCCCCCC[N+]2(C)CCCC2)CCCC1.[Br-].[Br-]` was run?
**A.** > 250 µM

**Q.** `CCCCCCCCCCCCCC[S+]1CCCC1.[I-]` was tested. Which MIC did it give?
**A.** > 250 µM

**Q.** `CCCCCCCCCCCCCCCC[S+]1CCCC1.[I-]` was tested. Which MIC did it give?
**A.** > 250 µM

**Q.** With `CCCCCCCCCCCCCCCCCC[N+]1(C)CCCC1.[Br-]` as the compound, how does the MIC read?
**A.** 250 µM

**Q.** For `CCCCCCCCCCCC[N+]1(C)CCCC1.[Br-]`, which MIC is on record?
**A.** > 250 µM

System: Escherichia coli
Assay: Antimicrobial activity against Escherichia coli MC4100 assessed as inhibition of microbial growth
Assay type: functional
Settings: not given

**Q.** With `CCCCCCCCCCCCC[N+]1(C)CCCC1.[Br-]` as the compound, how does the MIC read?
**A.** > 250 µM

**Q.** With `CCCCCCCCCC[N+]1(C)CCCC1.[Br-]` as the compound, how does the MIC read?
**A.** > 250 µM

**Q.** How did the MIC turn out when `C[N+]1(CCCCCCCCCC[N+]2(C)CCCC2)CCCC1.[Br-].[Br-]` was run?
**A.** > 250 µM

**Q.** Which MIC does the source give for `C(CCCCC[S+]1CCCC1)CCCC[S+]1CCCC1.[I-].[I-]` here?
**A.** > 250 µM

**Q.** Which MIC does the source give for `CCCCCCCCCCCCC[S+]1CCCC1.[I-]` here?
**A.** > 250 µM

**Q.** For `C(CCCC[S+]1CCCC1)CCC[S+]1CCCC1.[I-].[I-]`, which MIC is on record?
**A.** > 250 µM

**Q.** For `C[N+]1(CCCCCCCC[N+]2(C)CCCC2)CCCC1.[Br-].[Br-]`, which MIC is on record?
**A.** > 250 µM

**Q.** How did the MIC turn out when `CCCCCCCCCCCCCC[S+]1CCCC1.[I-]` was run?
**A.** 250 µM

**Q.** With `CCCCCCCCCCCCCCCC[S+]1CCCC1.[I-]` as the compound, how does the MIC read?
**A.** 125 µM

**Q.** Which MIC does the source give for `CCCCCCCCCCCCCCCCCC[N+]1(C)CCCC1.[Br-]` here?
**A.** 63 µM

**Q.** With `CCCCCCCCCCCC[N+]1(C)CCCC1.[Br-]` as the compound, how does the MIC read?
**A.** > 250 µM

System: Erythrocyte
Assay: Hemolytic activity against human RBC assessed as concentration required to cause >20% hemolysis
Assay type: ADME, cell-based
Settings: not given

**Q.** With `CCCCCCCCCCCCC[N+]1(C)CCCC1.[Br-]` as the compound, how does the HC20 read?
**A.** 63 µM

**Q.** `CCCCCCCCCC[N+]1(C)CCCC1.[Br-]` was tested. Which HC20 did it give?
**A.** 250 µM

**Q.** `C[N+]1(CCCCCCCCCC[N+]2(C)CCCC2)CCCC1.[Br-].[Br-]` was tested. Which HC20 did it give?
**A.** 125 µM

**Q.** Which HC20 does the source give for `C(CCCCC[S+]1CCCC1)CCCC[S+]1CCCC1.[I-].[I-]` here?
**A.** 125 µM

**Q.** Which HC20 does the source give for `CCCCCCCCCCCCC[S+]1CCCC1.[I-]` here?
**A.** 63 µM

**Q.** `C(CCCC[S+]1CCCC1)CCC[S+]1CCCC1.[I-].[I-]` was tested. Which HC20 did it give?
**A.** 125 µM

**Q.** With `C[N+]1(CCCCCCCC[N+]2(C)CCCC2)CCCC1.[Br-].[Br-]` as the compound, how does the HC20 read?
**A.** 125 µM

**Q.** For `CCCCCCCCCCCCCC[S+]1CCCC1.[I-]`, which HC20 is on record?
**A.** 16 µM

**Q.** How did the HC20 turn out when `CCCCCCCCCCCCCCCC[S+]1CCCC1.[I-]` was run?
**A.** 16 µM

**Q.** With `CCCCCCCCCCCCCCCCCC[N+]1(C)CCCC1.[Br-]` as the compound, how does the HC20 read?
**A.** 16 µM

**Q.** Which HC20 does the source give for `CCCCCCCCCCCC[N+]1(C)CCCC1.[Br-]` here?
**A.** 125 µM
